In article PMC6321601 (Molecules, 2018):

Experiments:
Bim = assay: Western blot assay, Bim; type: cell-based, human; settings: HepG-2, 24 h
Procedure: (§1) HepG-2 cells were treated with compound 10b for 24 h, and the cell lysates were collected. Then, the total protein was separated by SDS-PAGE and transferred to PVDF membranes. The membranes were incubated with primary antibodies (1:1000) at 4 °C overnight. After being washed with PBST (PBS + 0.5% Tween 20) 5 times, the membranes were incubated with HRP-conjugated secondary antibodies (1:5000 dilution) for 2 h at room temperature. The membranes were then washed with PBST 5 times and the protein blots were detected by ECL chemiluminescence.

Bcl-2 = assay: Western blot assay, Bcl-2; type: cell-based, human; settings: HepG-2, 24 h
Procedure: as §1

HepG-2 cells = assay: Cell apoptosis assay, Annexin-V/PI flow cytometry; type: cell-based, human; settings: HepG-2, 48 h, 0, 1 and 2 µM
Procedure: HepG-2 cells were seeded into a 24-well plate with 5 × 10^4/well/1 mL. After 12 h, cells were treated with compound 10b at different concentrations for 48 h. The cells were collected, washed with cold PBS, and stained with Annexin-V/PI according to the manufacturer’s instructions. Then, the cells were analyzed with flow cytometry.

caspase 3 = assay: Western blot assay, caspase 3; type: cell-based, human; settings: HepG-2, 24 h
Procedure: as §1

STAT3 = assay: Western blot assay, STAT3; type: cell-based, human; settings: HepG-2, 24 h, different concentrations
Procedure: as §1

Bax = assay: Western blot assay, Bax; type: cell-based, human; settings: HepG-2, 24 h
Procedure: as §1

[1] = tested on: L-O2 human normal liver cells; assay: MTT assay, toxicity against L-O2 normal cells; type: cell-based; settings: 72 h incubation, mean of three independent experiments
Procedure: (§2) HepG-2 human hepatocellular carcinoma cells and L-O2 human normal liver cells were maintained in DMEM culture medium supplemented with 10% FBS at 37 °C under a humidified atmosphere with 5% CO2.
(§3) HepG-2 and L-O2 cells in logarithmic growth phase were seeded into a 96-well plate at 5 × 10^3/well/200 µL. After 12 h, compounds at different concentrations were added and incubated for 72 h at 37 °C, 5% CO2. Then, 20 µL MTT (5 mg/mL) was added into each well and incubated for 4 h. The supernatant was discarded, and the precipitate was dissolved with DMSO. The absorbance of the optical density (OD) at 570 nm was detected using a microplate reader and the IC50 was calculated with GraphPad Prism 5.

[2] = tested on: HepG-2 human hepatocellular carcinoma cells; assay: MTT assay, proliferation of HepG-2 cells; type: cell-based; settings: mean of three independent experiments
Procedure: as §2, §3

Balb/C mice = assay: In vivo acute toxicity assay; settings: intravenous injection; for percentage of death: three mice
Procedure: To evaluate the toxicity of compound 10b, an acute toxicity assay was performed using Balb/C mice.
Five-week-old Balb/C mice were purchased from the Chinese Academy of Sciences and maintained under specific pathogen free (SPF) conditions. […] The control group mice were treated with vehicle buffer intravenously. […] The compound 10b group mice were treated with compound 10b at doses of 2 mg/kg, 5 mg/kg, 10 mg/kg, 20 mg/kg, and 50 mg/kg respectively (three mice each dose). The clinical symptoms, deaths, and body weight were observed and recorded.

P-STAT3 = assay: Western blot assay, P-STAT3; type: cell-based, human; settings: HepG-2, 24 h, dose-dependent
Procedure: as §1

[3] = Homo sapiens, HepG2, 72 h incubation

Molecule	IC50 ([1]; Homo sapiens)	IC50 [2, 3]	also measured
CC(=O)OC(C)(C)/C=C/C(=O)[C@](C)(O)C1[C@H](OC(=O)CCC(=O)OCCCOc2no[n+]([O-])c2S(=O)(=O)c2ccccc2)C[C@@]2(C)C3CC=C4C(CC(O)C(=O)C4(C)C)[C@]3(C)C(=O)C[C@]12C (stereo partly drawn) [Compound 10b, 4-(3-((4-(((9R,13R,14S,16R)-17-((R,E)-6-Acetoxy-2-hydroxy-6-methyl-3-oxohept-4-en-2-yl)-2-hydroxy-4,4,9,13,14-pentamethyl-3,11-dioxo-2,3,4,7,8,9,10,11,12,13,14,15,16,17-tetradecahydro-1H-cyclopenta[a]phenanthren-16-yl)oxy)-4-oxobutanoyl)oxy)propoxy)-3-(phenylsulfonyl)-1,2,5-oxadiazole 2-oxide]	2970 ± 230 nM	630 ± 290 nM	expression of Bim (Bim): strongly increased; expression of Bcl-2 (Bcl-2): substantially diminished; induction of cell apoptosis (HepG-2 cells): significantly induced cell apoptosis in a dose-dependent manner; level of caspase 3 (caspase 3): decreased; total expression of STAT3 (STAT3): remained little changed; expression of Bax (Bax): strongly increased; percentage of death (Balb/C mice; 2 mg/kg): 0/3; percentage of death (Balb/C mice; 5 mg/kg): 0/3; percentage of death (Balb/C mice; 10 mg/kg): 0/3; percentage of death (Balb/C mice; 20 mg/kg): 0/3; percentage of death (Balb/C mice; 50 mg/kg): 1/3; body weight change (Balb/C mice; different doses (2-50 mg/kg), compared to the vehicle group): did not change; level of P-STAT3 (P-STAT3): clearly inhibited
CC(=O)OC(C)(C)/C=C/C(=O)[C@](C)(O)C1[C@H](OC(=O)CCC(=O)OCCCCCCCCCCOc2no[n+]([O-])c2S(=O)(=O)c2ccccc2)C[C@@]2(C)C3CC=C4C(CC(O)C(=O)C4(C)C)[C@]3(C)C(=O)C[C@]12C (stereo partly drawn) [Compound 10i, 4-((10-((4-(((9R,13R,14S,16R)-17-((R,E)-6-Acetoxy-2-hydroxy-6-methyl-3-oxohept-4-en-2-yl)-2-hydroxy-4,4,9,13,14-pentamethyl-3,11-dioxo-2,3,4,7,8,9,10,11,12,13,14,15,16,17-tetradecahydro-1H-cyclopenta[a]phenanthren-16-yl)oxy)-4-oxobutanoyl)oxy)decyl)oxy)-3-(phenylsulfonyl)-1,2,5-oxadiazole 2-oxide]	3270 ± 430 nM	6920 ± 750 nM	
CC(=O)OC(C)(C)/C=C/C(=O)[C@](C)(O)C1[C@H](OC(=O)CCC(=O)OCCCCCCCCCCCOc2no[n+]([O-])c2S(=O)(=O)c2ccccc2)C[C@@]2(C)C3CC=C4C(CC(O)C(=O)C4(C)C)[C@]3(C)C(=O)C[C@]12C (stereo partly drawn) [Compound 10j, 4-((11-((4-(((9R,13R,14S,16R)-17-((R,E)-6-Acetoxy-2-hydroxy-6-methyl-3-oxohept-4-en-2-yl)-2-hydroxy-4,4,9,13,14-pentamethyl-3,11-dioxo-2,3,4,7,8,9,10,11,12,13,14,15,16,17-tetradecahydro-1H-cyclopenta[a]phenanthren-16-yl)oxy)-4-oxobutanoyl)oxy)undecyl)oxy)-3-(phenylsulfonyl)-1,2,5-oxadiazole 2-oxide]	6690 ± 3950 nM	10300 ± 1110 nM	
CC(=O)OC(C)(C)/C=C/C(=O)[C@](C)(O)C1[C@H](OC(=O)CCC(=O)OCCCCCCCCCCCCOc2no[n+]([O-])c2S(=O)(=O)c2ccccc2)C[C@@]2(C)C3CC=C4C(CC(O)C(=O)C4(C)C)[C@]3(C)C(=O)C[C@]12C (stereo partly drawn) [Compound 10k, 4-((12-((4-(((9R,13R,14S,16R)-17-((R,E)-6-Acetoxy-2-hydroxy-6-methyl-3-oxohept-4-en-2-yl)-2-hydroxy-4,4,9,13,14-pentamethyl-3,11-dioxo-2,3,4,7,8,9,10,11,12,13,14,15,16,17-tetradecahydro-1H-cyclopenta[a]phenanthren-16-yl)oxy)-4-oxobutanoyl)oxy)dodecyl)oxy)-3-(phenylsulfonyl)-1,2,5-oxadiazole 2-oxide]	> 20000 nM	> 20000 nM	
CC(=O)OC(C)(C)/C=C/C(=O)[C@](C)(O)C1[C@H](OC(=O)CCC(=O)OC/C=C/COc2no[n+]([O-])c2S(=O)(=O)c2ccccc2)C[C@@]2(C)C3CC=C4C(CC(O)C(=O)C4(C)C)[C@]3(C)C(=O)C[C@]12C (stereo partly drawn) [Compound 10l, 4-(((E)-4-((4-(((9R,13R,14S,16R)-17-((R,E)-6-Acetoxy-2-hydroxy-6-methyl-3-oxohept-4-en-2-yl)-2-hydroxy-4,4,9,13,14-pentamethyl-3,11-dioxo-2,3,4,7,8,9,10,11,12,13,14,15,16,17-tetradecahydro-1H-cyclopenta[a]phenanthren-16-yl)oxy)-4-oxobutanoyl)oxy)but-2-en-1-yl)oxy)-3-(phenylsulfonyl)-1,2,5-oxadiazole 2-oxide]	2720 ± 380 nM	1010 ± 400 nM	
CC(=O)OC(C)(C)/C=C/C(=O)[C@](C)(O)C1[C@H](OC(=O)CCC(=O)OCC#CCOc2no[n+]([O-])c2S(=O)(=O)c2ccccc2)C[C@@]2(C)C3CC=C4C(CC(O)C(=O)C4(C)C)[C@]3(C)C(=O)C[C@]12C (stereo partly drawn) [Compound 10m, 4-((4-((4-(((9R,13R,14S,16R)-17-((R,E)-6-Acetoxy-2-hydroxy-6-methyl-3-oxohept-4-en-2-yl)-2-hydroxy-4,4,9,13,14-pentamethyl-3,11-dioxo-2,3,4,7,8,9,10,11,12,13,14,15,16,17-tetradecahydro-1H-cyclopenta[a]phenanthren-16-yl)oxy)-4-oxobutanoyl)oxy)but-2-yn-1-yl)oxy)-3-(phenylsulfonyl)-1,2,5-oxadiazole 2-oxide]	2940 ± 90 nM	1350 ± 100 nM	
CC(=O)OC(C)(C)/C=C/C(=O)[C@](C)(O)C1[C@H](OC(=O)CCC(=O)OCC(C)(C)COc2no[n+]([O-])c2S(=O)(=O)c2ccccc2)C[C@@]2(C)C3CC=C4C(CC(O)C(=O)C4(C)C)[C@]3(C)C(=O)C[C@]12C (stereo partly drawn) [Compound 10n, 4-(3-((4-(((9R,13R,14S,16R)-17-((R,E)-6-Acetoxy-2-hydroxy-6-methyl-3-oxohept-4-en-2-yl)-2-hydroxy-4,4,9,13,14-pentamethyl-3,11-dioxo-2,3,4,7,8,9,10,11,12,13,14,15,16,17-tetradecahydro-1H-cyclopenta[a]phenanthren-16-yl)oxy)-4-oxobutanoyl)oxy)-2,2-dimethylpropoxy)-3-(phenylsulfonyl)-1,2,5-oxadiazole 2-oxide]	3310 ± 180 nM	1110 ± 220 nM	
CC(=O)OC(C)(C)/C=C/C(=O)[C@](C)(O)C1[C@H](OC(=O)CCC(=O)OCc2ccc(COc3no[n+]([O-])c3S(=O)(=O)c3ccccc3)cc2)C[C@@]2(C)C3CC=C4C(CC(O)C(=O)C4(C)C)[C@]3(C)C(=O)C[C@]12C (stereo partly drawn) [Compound 10o, 4-((4-(((4-(((9R,13R,14S,16R)-17-((R,E)-6-Acetoxy-2-hydroxy-6-methyl-3-oxohept-4-en-2-yl)-2-hydroxy-4,4,9,13,14-pentamethyl-3,11-dioxo-2,3,4,7,8,9,10,11,12,13,14,15,16,17-tetradecahydro-1H-cyclopenta[a]phenanthren-16-yl)oxy)-4-oxobutanoyl)oxy)methyl)benzyl)oxy)-3-(phenylsulfonyl)-1,2,5-oxadiazole 2-oxide]	3000 ± 260 nM	1020 ± 280 nM	
CC(=O)OC(C)(C)/C=C/C(=O)[C@](C)(O)C1[C@H](OC(=O)CCC(=O)O)C[C@@]2(C)C3CC=C4C(C[C@H](O)C(=O)C4(C)C)[C@]3(C)C(=O)C[C@]12C (stereo partly drawn) [Compound 11, 4-(((2S,9R,13R,14S,16R)-17-((R,E)-6-Acetoxy-2-hydroxy-6-methyl-3-oxohept-4-en-2-yl)-2-hydroxy-4,4,9,13,14-pentamethyl-3,11-dioxo-2,3,4,7,8,9,10,11,12,13,14,15,16,17-tetradecahydro-1H-cyclopenta[a]phenanthren-16-yl)oxy)-4-oxobutanoic acid]	> 20000 nM	> 20000 nM	
cucurbitacin B [Compound 1, reference compound]			IC50 [1]: 19 ± 3 nM; IC50 ([2]; 72 h incubation): 60 ± 20 nM
